Data as given in patent publication EP4578449A1, “PHARMACEUTICAL COMBINATION OF FAK INHIBITOR AND MICROTUBULE INHIBITOR AND USE THEREOF” (Inxmed (Nanjing) Co., Ltd., priority 2022, dated 2024).

Legend:
Format in all cases: cell-based
[1] = system: MDA-MB-231 cells; test: FAK silencing combined with Eribulin, Calreticulin (ICD target) by flow cytometry; settings: MDA-MB-231 cells transfected with FAK siRNA 50 nM for 24 hours, then 0.15 µM Eribulin 48 hours; vs control siRNA
Procedure: (§1) • 1. FAK silencing combined with Eribulin promotes apoptosis of breast cancer cells MDA-MB-231 The siRNA technology was used in the in vitro assays to reduce the expression level of FAK, and combined with Eribulin for 48 hours; flow cytometry was used to detect apoptosis in control and FAK silenced cells. • 2. FAK silencing combined with Eribulin can effectively promote the production of ICD in breast cancer cells MDA-MB-231 The siRNA technology was used in the in vitro assay to reduce the expression level of FAK, and combined with Eribulin for 48 hours. Flow cytometry was used to detect the expression of Calreticulin, the main target of ICD.
(§2) Recombinant Alexa Fluor® 647 fluorescent Anti-Calreticulin antibody (Abcam, ab196159), Annexin V apoptosis detection kit (Invitrogen, A35110).
(§3) FAK siRNA was provided by Gene Pharma, and the sequence is shown in the following table: • F: […]; • R: […] • Assay instruments: Fluorescence microscope (Olympus U-HGLGPS). Chemiluminescence imager (BIORAD chemidoc touch).
(§4) • 1. […] The cells were stained using Annexin V kit and detected by flow cytometry. The early and late apoptosis values were counted, compared with those of the DMSO control group, and plotted using Graphpad 8.0. […] The cells were fluorescent stained with Calreticulin antibody, and the staining results were analyzed by flow cytometry.

[2] = system: human ovarian epithelial carcinoma TOV-21G cells; test: Eribulin and IN10018: microscopy and CRT/Annexin-V/PI flow cytometry; settings: 48 hours, IN10018 10 µM, Eribulin 0.045 µM, alone or combined
Procedure: (§5) ID8 cells and TOV-21G cells were cultured in monolayer in vitro. ID8 cells were cultured in DMEM medium with 10% fetal bovine serum. TOV-21G cells were cultured in RPMI-1640 medium with 10% fetal bovine serum. Both were cultured in a 37 °C, 5% CO2 incubator. Trypsin was used for routine digestion and passage treatment two to three times a week. When the cells were in the exponential growth phase and the adherent confluence reached 80%-90%, the cells were harvested and plated.
(§6) ID8 cells and TOV-21G cells were digested with trypsin and then collected and counted. Based on the counting results, the cells were diluted with the corresponding complete culture medium to a concentration of 50,000 cells per milliliter. Then the cells were plated in 12-well cell culture plates, with 2 ml of cell suspension per well, i.e., 100,000 cells.
(§7) After plating, the cells were cultured in a 37°C and 5% CO2 incubator.
(§8) After 24 hours of plating, test compounds IN10018 and Eribulin were added to different wells, respectively.
(§9) After 48 hours of drug action, the cells were photographed using a microscope, and then trypsinized and collected for flow cytometry staining.
(§10) The cells were washed twice with flow buffer (DPBS + 2% FBS). 0.5 µL of AF647 Anti-Calreticulin Antibody was added to each well, and mixed. The cells were incubated at 4°C in the dark for 20 min. After washing once with flow buffer, 195 µL of Annexin-V-FITC binding solution was added, and the cells were gently mixed well. 5 µL of Annexin-V-FITC antibody was added. After further mixing, 10 µL of PI dye was added and mixed well. The cells were incubated at room temperature in the dark for 15 min. The cells were then subjected to flow cytometry.
(§11) After the assay, the cell positive rate was analyzed by Flowjo (V10) software.

[3] = system: mouse ovarian epithelial carcinoma ID8 cells; test: as above; settings: 48 hours, IN10018 10 µM, Eribulin 0.045 µM, alone or combined
Procedure: as §5, §6, §7, §8, §9, §10, §11

[4] = system: mouse colon cancer CT26 cells; test: Docetaxel/Eribulin/Paclitaxel and Defactinib: microscopy and CRT/Annexin-V/PI flow cytometry; settings: 48 hours, Defactinib 5 µM, Docetaxel 0.3 µM, Eribulin 0.3 µM, Paclitaxel 6 µM, alone or combined with Defactinib
Procedure: (§12) CT26 cells were cultured in monolayer in vitro under the following conditions: RPMI-1640 medium with 10% fetal bovine serum, 37°C, 5% CO2. Trypsin was used for routine digestion and passage treatment two to three times a week. When the cells were in the exponential growth phase and the adherent confluence reached 80%-90%, the cells were harvested and plated.
as §6, with “CT26” for “ID8 cells and TOV-21G”, “trypsin,” for “trypsin”, “then the cells were” for “then”
as §7
After 24 hours of plating, the test compounds Docetaxel, Eribulin, Paclitaxel and Defactinib were added to different wells, respectively.
as §9
as §10, with “mixed well.” for “mixed.”
as §11

[5] = system: mouse breast cancer 4T1 cells; test: Eribulin and IN10018: microscopy and CRT/Annexin-V/PI and GRP94 flow cytometry; settings: 48 hours, IN10018 5 µM, Eribulin 0.15 µM or 0.45 µM, alone or combined
Procedure: as §12, with “4T1” for “CT26”, “37 °C,” for “37°C,”
as §6, with “4T1” for “ID8 cells and TOV-21G”, “RPMI-1640+10% FBS” for “the corresponding complete culture medium”, “cells. After plating, the cells were cultured in a 37°C and 5% CO2 incubator.” for “cells.”
as §8, §9
The cells were washed twice with flow buffer (DPBS + 2% FBS), and each group of cells was divided into two equal parts. In one part, 0.5 µL of AF647 Anti-Calreticulin Antibody was added to each well, and mixed. The cells were incubated at 4°C in the dark for 20 min. […]
as §11

[6] = system: mouse breast cancer 4T1 cells; test: Docetaxel/Eribulin and Defactinib: microscopy and CRT/Annexin-V/PI flow cytometry; settings: 48 hours, Defactinib 5 µM, Docetaxel 0.3 µM, Eribulin 0.1 µM, alone or combined with Defactinib
Procedure: 4T1 cells were cultured in a monolayer in vitro in RPMI-1640 medium with 10% fetal bovine serum in a 37 °C, 5% CO2 incubator. Trypsin was used for routine digestion and passage treatment two to three times a week. When the cells were in the exponential growth phase and the adherent confluence reached 80%-90%, the cells were harvested and plated.
as §6, with “4T1” for “ID8 cells and TOV-21G”, “trypsin,” for “trypsin”, “then the cells were” for “then”
as §7
After 24 hours of plating, the test compounds Defactinib, Docetaxel and Eribulin were added to different wells, respectively.
as §9
The cells were washed twice with flow buffer (DPBS + 2% FBS). 0.5 µL of AF647 Anti-Calreticulin Antibody was added to each well, and mixed well. The cells were incubated at 4°C in the dark for 20 min. […]
as §11

[7] = system: MDA-MB-231 cells; test: FAK silencing combined with Eribulin, Annexin V apoptosis by flow cytometry; settings: MDA-MB-231 cells transfected with FAK siRNA 50 nM for 24 hours, then 0.15 µM Eribulin 48 hours; FAK silencing group compared with control group
Procedure: as §1, §2, §3, §4

C=C1C[C@@H]2CC[C@@]34C[C@H]5O[C@H]6[C@@H](O3)[C@H]3O[C@H](CC[C@@H]3O[C@H]6[C@H]5O4)CC(=O)C[C@@H]3[C@@H](OC)[C@@H](C[C@H](O)CN)O[C@H]3C[C@H]3O[C@@H](CC[C@@H]1O2)C[C@@H](C)C3=C [Eribulin]
release and exposure of Calreticulin [1]: significantly enhanced
cell status (cell death / cell viability) under a microscope [2]: obvious
cell status (cell death / cell viability) under a microscope [3]: obvious
cell status (cell death) under a microscope [4]: obvious
cell status (cell death / cell viability) under a microscope [5]: obvious
cell status (cell death) under a microscope [6]: obvious
early and late apoptosis (Annexin V kit) [7]: significantly enhanced
